Earlier results, collected in patent publication US20220184102A1, “COMPOSITIONS AND METHODS FOR TREATING AGE-RELATED MACULAR DEGENERATION” (priority 2019, published 2022).
Blank lines part the entries; values can stand above or below the molecule they belong to.

How the values were obtained:
[1] = system: early seropositive rheumatoid arthritis; conditions: 20 mg twice-daily (subantimicrobial dose) plus MTX
chronic periodontitis = conditions: 20 mg twice daily, two years
intestinal flora = conditions: 20 mg twice-daily for 9 months
[2] = system: neovascular exudative AMD; conditions: oral minocycline combined with reduced-fluence PDT, intravitreal ranibizumab, intravitreal dexamethasone

SMILES: C[C@H]1c2cccc(O)c2C(=O)C2=C(O)[C@]3(O)C(=O)C(C(N)=O)=C(O)[C@@H](N(C)C)[C@@H]3[C@@H](O)[C@@H]21 [doxycycline]
- tolerability (adult periodontitis; 10 mg daily, 20 mg daily or 20 mg twice daily, 9-12 months): well-tolerated
- resistance to doxycycline (adult periodontitis; during the course of the study): no resistance developed
- liver or kidney function tests versus control group (adult periodontitis; treatment groups): No clinically significant differences
- number of adverse events versus placebo group [1]: equivalent
- microbiological resistance (chronic periodontitis): no sign of microbiological resistance
- safety issues (chronic periodontitis): no significant safety issues
- antibacterial effect on intestinal flora (intestinal flora): no antibacterial effect

- levels in the brain relative to doxycycline at the same dose: ~3 fold
SMILES: CN(C)c1ccc(O)c2c1C[C@H]1C[C@H]3[C@H](N(C)C)C(O)=C(C(N)=O)C(=O)[C@@]3(O)C(O)=C1C2=O [minocycline]
- safety concerns [2]: No safety concerns were identified
